Reference: patent US20180072944A1, “Stannous Fluorescent Probe” (priority 2016, published 2018)

Assays:
[1] = test system: lysosomes of KB cells; assay: Colocalization experiment with LysoTracker Green DND in KB cells; assay type: cell-based; conditions: 50 μM Sn^2+, 10 μM probe, 1 μM LysoTracker Green DND, 30 min each
Experimental: Colocalization experiments are described. 50 μM SnF2 in the culture media is added to the cells. The cells are incubated at 37° C. for 30 min, and washed with PBS three times to remove the excess SnF2. After washing with PBS (2 mL×3) to remove the excess SnF2, the cells are treated with 10 μM of Compound R1 or R2 separately for 30 min, and washed with PBS three times to remove the excess probe and bathed in PBS (2 mL) before imaging. Cell imaging is then carried out as the former. After washing with PBS (2 mL×3) to remove the excess probes, the cells were treated with 1.0 μM LysoTracker® Green DND at 37° C. for 30 min. Cell imaging is then carried out as the former.
Firstly, the KB cells are stained with 50 μM Sn^2+ at 37° C. for 30 min, and then separately incubated with 10 μM of Compound R1 and 1 μM LysoTracker® Green DND or Compound R2 and 1 μM LysoTracker® Green DND under the same conditions. […] There is no fluorescence in other intracellular sites. […] This may be a transmission path of Sn. […] Many pharmaceutical agents, including various large and small molecules, must be delivered specifically to particular cell organelles in order to efficiently exert their therapeutic action. Such delivery is still mainly an unresolved problem, but targeting detection is helpful attempt. […]

[2] = pH titration of fluorescence; assay type: physicochemical; conditions: 10 μM in PBS, emission 580 nm, excitation 560 nm
Experimental: pH titration of Compounds R1 and R2 is described. Stock solutions of Compounds R1 and R2 are respectively added to sodium phosphate buffers of various pH to a final concentration of 10 μM. The fluorescence emission spectra are recorded as a function of pH using λex at 560 nm. The titration curves are plotted by fluorescence emission intensities at 580 nm versus pH.
The impact of pH values on fluorescence is described. The pirolactam ring of the rhodamine derivatives will open in a certain pH range and indicates the fluorescence of rhodamine. It is therefore necessary to check the fluorescence properties of Compounds R1 and R2 in solutions with different pH values. Furthermore, in the cell, the acidity of different organelles may vary greatly. For example, the normal pH of lysosomes is 4.5-5.5, which may induce ring opening of R1 or R2. Considering the application of Sn^2+ probe R1 and R2 intracellular or extracellular may be disturbed by the pH, the acid-base titration experiments are carried out by adjusting the pH with an aqueous solution of NaOH and HCl in Phosphate-Buffered Saline (“PBS”) (FIG. 2 a and b). […] It is predicted that R1 will be turned on by lysosomes in cell without Sn^2+ present. FIGS. 2a and 2b show the dependence of fluorescence at 580 nm of comparative Compound R1 and inventive Compound R2 (10 μM) at different pH in PBS solution. Excitation was at 560 nm.

[3] = test system: Streptococcus mutans (ATCC® 700610™); assay: Fluorescence imaging of Sn^2+ in bacteria (confocal); assay type: cell-based; conditions: for fluorescence change in Streptococcus mutans after incubation with Sn^2+: 10 μM probe 60 min at 37° C., then 50 μM Sn^2+; for fluorescence in Streptococcus mutans without Sn^2+ present: 10 μM probe, 37° C., 60 min, no Sn^2+
Experimental: Cell culture preparation is described. The KB cell line was provided by of Biochemistry and Cell Biology (China). Cells are grown in MEM (Modified Eagle's Medium) supplemented with 10% FBS (Fetal Bovine serum) and 5% CO2 at 37° C. Cell ([…]) are plated on […] glass coverslips and allowed to adhere for 24 hours. The Streptococcus mutans (ATCC® 700610™) is prepared by inoculating the single colony from the BHI (Brain-Heart Infusion) agar plate into 5 mL BHI broth and incubating at 37° C. for 48 h.
For fluorescence imaging of Sn^2+ in bacteria is described. Freshly diluted Streptococcus mutans (ATCC® 700610™) is sub cultured in the presence of the 10 μM Compound R1 or R2, separately at 37° C. on a shaker bed at 400 rpm for 60 min. Then the bacteria are collected by centrifugation at 8,000 rpm for 2 min and rinsed with Saline (pH=7.0). The process is repeated three times before imaging. After washing with Saline (2 mL×3) to remove the excess probes, the bacteria is cultured in the presence of the 50 μM SnF2 at 37° C. on a shaker bed at 400 rpm for 60 min. Then the bacteria are collected by centrifugation at 8,000 rpm for 2 min and rinsed with Saline (pH=7.0). The process was repeated three times before imaging. The light source is at =543 nm provided excitation and emission are collected in the range=560-660 nm.
Turning to FIGS. 5a and 5b, fluorescence imaging of Sn^2+ in bacteria is described. FIGS. 5a and 5b show simplified illustrations derived based upon CLSM. The illustrations are not drawn to scale but rather enlarged for illustrative purposes. It has been reported that Sn^2+ can inhibit metabolism of Streptococcus mutans. The practical applicability of Compounds R1 and R2 as a Sn^2+ probe in the fluorescence imaging of living Streptococcus mutans (ATCC® 700610™) are investigated. Firstly, the Streptococcus mutans (ATCC® 700610™) are separately stained with 10 μM Compound R1 or R2 at 37° C. for 60 min.
FIGS. 5a and 5b show simplified illustrations derived based upon CLSM images of Streptococcus mutans (ATCC® 700610™). The illustrations are not drawn to scale but rather enlarged for illustrative purposes. (a1-c1) and (a2-c2) Cells are separately incubated with 10 μM comparative Compound R1 and inventive Compound R2 for 30 min, (d1-f1) and (d2-f2) followed incubated with 50 μM SnF2 for 30 min. Emission is collected in red channel at 560-660 nm (b1, e1, b2, e2); a1, d1, a2, d2 are bright field images and c1, f1, c2, f2 are overlay images, respectively (λex=543 nm).

[4] = Metal ion sensing: fluorescence titration and selectivity experiments; assay type: physicochemical; conditions: for fluorescence at 580 nm upon addition of Sn^2+ / selectivity: metal ions that turn on fluorescence / fluorescence of probe solution without metal ion: 20 μM in ethanol-water (1:1, v/v, pH 7.04); for fluorescence at 580 nm upon addition of Sn^2+: Sn^2+ 0-20 eq; for fluorescence at 580 nm upon addition of Sn^2+ / selectivity: metal ions that turn on fluorescence / fluorescence enhancement with other transition and heavy metal ions: excitation 560 nm; for fluorescence of probe solution without metal ion: no Sn^2+; for fluorescence enhancement with other transition and heavy metal ions: K^+, Ag^+, Ca^2+, Mg^2+, Zn^2+, Pb^2+, Ni^2+, Mn^2+, Co^2+, Cd^2+, Hg^2+, 20 μM probe
Experimental: The procedure for metal ion sensing is described. Solutions of the metal ions (10.0 mM) are prepared in deionized water. […] Sn^2+ stock solution is added into the quartz optical cell gradually by micro-pipette. Spectral data is recorded at 5 min after addition. […] For fluorescence measurements, excitation is provided at 560 nm, while emission is collected from 565 to 700 nm. Metal ion response is described. Fluorescent ‘turn on’ probe is conducive for detection target. […] High-level selectivity is of paramount importance for an excellent chemosensor. […] Metal ion response of R1 and R2 are suited for detection of Sn^2+ in living Streptococcus mutans cells.

Spiro[1H-isoindole-1,9′-[9H]xanthen]-3(2H)-one, 2-[2-[bis(2-hydroxyethyl)amino]amino]ethyl]-3′,6′-bis(diethylamino) [Compound R1]
colocalization of probe fluorescence with LysoTracker Green DND [1]: overlap with LysoTracker® Green DND very well
pH range for inducing fluorescence turning on [2]: 2.5-6 pH
fluorescence change in Streptococcus mutans after incubation with Sn^2+ [3]: significant fluorescence increasing
fluorescence in Streptococcus mutans without Sn^2+ present [3]: no fluorescence emission
fluorescence at 580 nm upon addition of Sn^2+ [4]: turned on and grown drastically
selectivity: metal ions that turn on fluorescence [4]: tuning on just in the presence of Sn^2+ and Cr^3+
fluorescence of probe solution without metal ion [4]: non-fluorescent
fluorescence enhancement with other transition and heavy metal ions [4]: minimal enhancement

CCN(CC)c1ccc2c(c1)Oc1cc(N(CC)CC)ccc1C21c2ccccc2C(=O)N1NC(=O)OC(C)(C)C [Compound R2]
colocalization of probe fluorescence with LysoTracker Green DND [1]: overlap with LysoTracker® Green DND very well
pH range for inducing fluorescence turning on [2]: 2-4.5 pH
fluorescence change in Streptococcus mutans after incubation with Sn^2+ [3]: significant fluorescence increasing
fluorescence in Streptococcus mutans without Sn^2+ present [3]: no fluorescence emission
fluorescence at 580 nm upon addition of Sn^2+ [4]: turned on and grown drastically
selectivity: metal ions that turn on fluorescence [4]: tuning on just in the presence of Sn^2+ and Cr^3+
fluorescence of probe solution without metal ion [4]: non-fluorescent
fluorescence enhancement with other transition and heavy metal ions [4]: minimal enhancement
